Experimental data as given in PMC9423655, “Huntington’s disease phenotypes are improved via mTORC1 modulation by small molecule therapy” (PLoS ONE, 2022).

Key:
[1] = target: T1, Sestrin2/GATOR2 interaction (Homo sapiens, UniProt P58004); experiment: Lysate-based (cell-free) Sestrin2/GATOR2 protein-protein interaction assay; type: binding; settings: added to immunoprecipitated Sestrin2/GATOR2 complexes from amino acid-starved flag-WDR24 HEK293T cells, 10 minutes
T1 construct: endogenous in cells; host or cells: Flag-WDR24 293T (HEK293T) cells
T1 sequence (P58004 1-480): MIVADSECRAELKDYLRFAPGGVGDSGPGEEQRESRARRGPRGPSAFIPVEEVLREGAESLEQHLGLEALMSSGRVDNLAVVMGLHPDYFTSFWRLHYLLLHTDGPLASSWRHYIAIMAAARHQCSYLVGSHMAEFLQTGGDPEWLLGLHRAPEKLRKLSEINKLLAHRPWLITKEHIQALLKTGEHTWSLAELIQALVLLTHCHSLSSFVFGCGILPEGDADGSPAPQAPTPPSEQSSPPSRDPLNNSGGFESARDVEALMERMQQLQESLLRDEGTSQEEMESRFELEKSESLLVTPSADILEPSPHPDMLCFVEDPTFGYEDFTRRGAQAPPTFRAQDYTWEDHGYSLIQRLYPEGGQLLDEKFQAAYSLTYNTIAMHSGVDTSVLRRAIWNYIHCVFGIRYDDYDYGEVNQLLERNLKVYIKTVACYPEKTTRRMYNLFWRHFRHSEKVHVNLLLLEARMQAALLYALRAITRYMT
Protocol: Flag-WDR24 293T cells were washed and placed in amino acid-free RPMI for 50 minutes. Cells were then rinsed once with ice-cold PBS and immediately lysed with Triton lysis buffer. The cell lysates were cleared by centrifugation at 13,200 rpm at 4°C in a microcentrifuge for 10 minutes. The anti-FLAG immunoprecipitations were performed as described above. Immunoprecipitated proteins (IPs) were resuspended in cytosolic buffer (40 mM HEPES pH 7.4, 140 mM KCl, 10 mM NaCl, 2.5 mM MgCl2, 0.1% TritonX-100) containing vehicle, NV-5297 or leucine at the indicated doses for 10 minutes. After compound incubation, IPs were collected by centrifugation, denatured, resolved by SDS-PAGE, and analyzed by immunoblotting.
Next, Sestrin2/GATOR2 protein-protein interactions in response to NV-5297 were measured using cell-free assays and in vitro. For this, HEK293T cells stably expressing flag-WDR24, a component of GATOR2 [44], were used. The cell-free assays utilized Sestrin2/GATOR2 complexes immunoprecipitated from amino acid-starved cells with an anti-flag antibody.

mTORC1 pathway in heart = experiment: Chronic 6-week treatment: heart immunoblots; type: in vivo; settings: N171-82Q mice, 160 mg/kg daily 6 weeks, 1 hour after dosing
Protocol: (§1) Specific regions of the brain and heart were homogenized using a Next Advance Bullet Blender Storm in Lysis Buffer (Cell lysis buffer: 1% Triton X-100, 50 mM HEPES pH 7.4, 100 mM sodium chloride, 2 mM EDTA, 10 mM Beta-glycerophosphate, 10 mM Sodium pyrophosphate, and 1 protease inhibitor) at 4°C. Lysates were cleared by centrifugation at 13,200 rpm at 4°C for 10 minutes. Equal amounts of total protein from each sample were denatured and, resolved by SDS-PAGE. Membranes were imaged using the LI-COR imaging system. Proteins levels are normalized to tubulin, actin or GAPDH levels and further normalized to vehicle treated mice for each tissue.
Fig 5 Oral dosing with NV-5297 over 6 weeks improves cardiac function and activates the mTORC1 pathway. (A) Representative M-mode echocardiograms from transthoracic echocardiography at 6 weeks and 12 weeks of vehicle and NV-5297 treated N171-82Q males. (B) Heart weight corrected for the animal’s standard length (tibia length) at 12 weeks. (C) Left ventricular measurements obtained by transthoracic echocardiography by deducting the end treatment (12 weeks) from the baseline (6 weeks) measurements. Variation in cardiac output [CO], ejection fraction [EF], fractional shortening [FS], stroke volume (SV) and Heart rate [HR]. (D) Representative immunoblots for normalized phosphorylated S6 (^S240/244pS6), S6, phosphorylated Akt (^S437pAkt), Akt, phosphorylated mTOR (^S2448pmTOR), mTOR, phosphorylated 4E-BP1 (^Thr37/46p4E-BP1), 4E-BP1 and Actin in homogenized heart. (E) Quantification of the immunoblots for homogenized heart isolated 1 hour after oral dosing with NV-5297 (160 mg/kg; n = 14) normalized to loading control levels and further normalized to vehicle (Veh) treated mice (n = 15). Data are presented as mean ± SEM. *P ≤ 0.05, **P ≤ 0.01, ***P ≤ 0.001 (unpaired Kruskal-Wallis test with Dunn’s multiple comparison test [B], unpaired one-tailed Student’s t-tests [C, E pmTOR] with a Welch’s correction [pS6/S6, pmTOR/mTOR] or a Mann-Whitney test [pAkt/Akt, p4E-BP1/4E-BP1]).

mTORC1 pathway (pS6) = experiment: Isoprenaline cardiac stress: pS6 immunoblot of striatum and heart; type: in vivo; settings: N171-82Q mice under isoprenaline cardiac stress, 1 hour after oral dosing 160 mg/kg
Protocol: as §1
Fig 8 mTORC1 pathway activation following NV-5297 dosing and cardiac stress in the striatum but not heart. Representative immunoblot (left panels) of phosphorylated S6 (^S240/244pS6) and quantification of normalized level (right panels) for homogenized heart (A) and striatum (B) isolated 1 hour after oral dosing with NV-5297 (160 mg/kg) with a saline (n = 10) or isoprenaline (n = 6) implant or treated with vehicle and an isoprenaline implant (n = 6) normalized to loading control levels and further normalized to vehicle treated mice with a saline implant (n = 9). Data are presented as mean ± SEM. *P ≤ 0.05, **P ≤ 0.01, ***P ≤ 0.001 (Mixed-effects model with Sidak’s multiple comparisons test).

Structure (SMILES): CC(C)(C[C@H](N)C(=O)O)C(F)(F)F [NV-5297, (S)-2-amino-5,5,5-trifluoro-4,4-dimethylpentanoic acid]
- Sestrin2/GATOR2 interaction (GATOR2-associated Sestrin2) [1]: disrupted the Sestrin2/GATOR2 interaction in a dose-dependent manner
- heart p4E-BP1 level versus controls (mTORC1 pathway in heart): elevated
- heart pS6 level versus controls (mTORC1 pathway in heart): elevated
- heart pmTOR level versus controls (mTORC1 pathway in heart): elevated
- pS6/S6 ratio in heart (mTORC1 pathway (pS6)): strong trend toward increased ratios
- pS6/S6 ratio in striatum (mTORC1 pathway (pS6)): increased pS6/S6 ratio
